# According to patent US9533983B2, “Antiplatelet agent” (Mitsubishi Tanabe Pharma Corporation, priority 2009, dated 2017):
# Experiments:
# Type in all cases: cell-based
# Conditions in all cases: Cavia porcellus, guinea pig PRP
# [1] = system: Collagen-Induced Platelet Aggregation; assay: Platelet aggregation inhibitory activity: collagen-induced platelet aggregation in platelet rich plasma
# Outline: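 Guinea-pig citrated platelet-rich plasma incubated with compound 1 min at 37° C, stirred 1 min, then aggregation induced with collagen and measured by light transmittance, platelet-poor plasma set as 100%. Aggregation rates at each concentration gave the IC50.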
# [2] = system: Ristocetin-Induced Platelet Aggregation; assay: Platelet aggregation inhibitory activity: ristocetin-induced platelet aggregation in platelet rich plasma
# Outline: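 Guinea pig citrated platelet-rich plasma preincubated with compound at 37 °C for 1 min, stirred 1 min, then aggregation induced with ristocetin. Light transmittance measured with PPP set as 100%. IC50 derived from aggregation rates across compound concentrations.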
# [3] = system: ADP-Induced Platelet Aggregation; assay: Platelet aggregation inhibitory activity: ADP-induced platelet aggregation in platelet rich plasma
# Description: A blood of a guinea pig was sampled by using a 1/10 volume of a 3.8% sodium citrate as a platelet aggregation inhibitor, and a platelet rich plasma (PRP) was separated by centrifuging the blood sample at 1100 rpm for 10 min. After fractionating the PRP in the upper layer, the lower layer was centrifuged at 3000 rpm for 10 min to fractionate the platelet poor plasma (PPP). To 100 μL of PRP, a 1 μL solution of each compound was added, and after still standing at 37° C. for 1 min, the mixture was stirred at 37° C. for 1 min by a stirrer. Then, 11 μL of collagen, ristocetin, or ADP was added thereto to induce the platelet aggregation. The platelet aggregation ability was measured by using the mCM hematolaser 313M (L-M-S Inc.). Based on the assumption that a light transmittance of PPP corresponds to a 100% coagulation value, an aggregation rate at each concentration of the compound was determined, then, an IC50 value was calculated therefrom.
# [Platelet Aggregation Inhibitory Activities: ADP-Induced Platelet Aggregation]
IC50 [1] [nM],IC50 [2] [nM],IC50 [3] [nM],SMILES
33,27,> 10000,"COc1ccc(-c2c(-c3ccc(F)cn3)nc3cc(C(F)(F)F)cnn23)cn1 [Example 181, 2-(5-fluoropyridin-2-yl)-3-(6-methoxypyridin-3-yl)-7-(trifluoromethyl)imidazo[1,2-b]pyridazine]"
24,9,> 10000,"COc1ccc(-n2c(-c3ccccn3)cc3cc(C(F)(F)F)cnc32)cn1 [Example 183, 1-(6-methoxypyridin-3-yl)-2-pyridin-2-yl-5-(trifluoromethyl)-1H-pyrrolo[2,3-b]pyridine]"
16,9,> 10000,"COc1ccc(-c2c3ncc(C(F)(F)F)cc3nn2-c2ccccn2)cn1 [Example 186, 3-(6-methoxypyridin-3-yl)-2-pyridin-2-yl-6-(trifluoromethyl)-2H-pyrazolo[4,3-b]pyridine]"
60,27,> 10000,"COc1ccc(-c2c(-c3ccc(F)cn3)nn3cc(C(F)(F)F)cnc23)cn1 [Example 192, 2-(5-fluoropyridin-2-yl)-3-(6-methoxypyridin-3-yl)-6-(trifluoromethyl)pyrazolo[1,5-a]pyrimidine]"
